Patent US12012396B2, “HDAC inhibitor solid state forms” (Viracta Subsidiary, Inc., priority 2020, dated 2024)
“Also recorded” adds a separate entry of the source. Structures can show the parent of a compound that is named as a salt.

How the values were obtained:
Format in all cases: physicochemical
[1] = Thermodynamic aqueous solubility; details: for pH of saturated solution: water, after 24 hours equilibration
Experimental: Aqueous solubility was determined by suspending sufficient compound in 0.5 ml deionized water to give a maximum final concentration of 40 mg/mi of the parent free-form of the compound. The suspension was equilibrated at 25° C., on a Heidolph plate shaker set to 750 rpm for 24 hours. After equilibration, the appearance was noted and the pH of the saturated solution was measured. Samples forming suspensions were centrifuged for 4 min at 13,500 rpm. Samples were then filtered through a glass fiber C filter (particle retention 1.2 μm), before dilution with H2O as appropriate.
Quantitation was by HPLC (see Table 2 for parameters) with reference to a standard solution of approximately 0.15 mg/ml in DMSO. Different volumes of the standard, diluted and undiluted sample solutions were injected. The solubility was calculated using the peak areas determined by integration of the peak found at the same retention time as the principal peak in the standard injection. Analysis was performed on an AgilentHPl 100/Infinity II 1260 series system equipped with a diode array detector and using OpenLAB software.

[2] = Static storage stability at elevated temperature/humidity (XRPD, HPLC purity)
Experimental: XRPD diffractograms were collected on a Bruker D8 diffractometer using Cu Kα, radiation (40 kV, 40 mA) and a 0-20 goniometer fitted with a Ge monochromator. The incident beam passes through a 2.0 mm divergence slit followed by a 0.2 mm anti-scatter slit and knife edge. The diffracted beam passes through an 8.0 mm receiving slit with 2.5° Soller slits followed by the Lynxeye Detector. The software used for data collection and analysis was Diffrac Plus XRD Commander and Diffrac Plus EVA respectively.
XRPD diffractograms were collected on a PANalytical Empyrean diffractometer using Cu Kα, radiation (45 kV, 40 mA) in transmission geometry. A 0.5° slit, 4 mm mask and 0.04 rad Soller slits with a focusing mirror were used on the incident beam. A PIXcel3D detector, placed on the diffracted beam, was fitted with a receiving slit and 0.04 rad Soller slits. The software used for data collection was X'Pert Data Collector using X'Pert Operator Interface. The data were analyzed and presented using Diffrac Plus EVA or HighScore Plus.
Purity analysis was performed on an AgilentHP1100/Infinity 111260 series system equipped with a diode array detector and using OpenLAB software.

[3] = Gravimetric Vapour Sorption (GVS); details: for XRPD post-GVS: residue after GVS
Experimental: Sorption isotherms were obtained using a SMS DVS Intrinsic moisture sorption analyser, controlled by DVS Intrinsic Control software. The sample temperature was maintained at 25° C. by the instrument controls. The humidity was controlled by mixing streams of dry and wet nitrogen, with a total flow rate of 200 ml/min. The relative humidity was measured by a calibrated Rotronic probe (dynamic range of 1.0-100% RH), located near the sample. The weight change, (mass relaxation) of the sample as a function of % RH was constantly monitored by a microbalance (accuracy ±0.005 mg). Typically, 20-30 mg of sample was placed in a tared mesh stainless steel basket under ambient conditions. The sample was loaded and unloaded at 40% RH and 25° C. (typical room conditions). A moisture sorption isotherm was performed as outlined below (2 scans per complete cycle). The standard isotherm was performed at 25° C. at 10% RH intervals over a 0-90% RH range. Typically, a double cycle (4 scans) was carried out. Data analysis was carried out within Microsoft Excel using the DVS Analysis Suite. [table]

physchem = assay: physchem
Source text: There was insufficient residue to characterize these further.

[4] = 7 days / 1 week at 25° C./97% RH
[5] = 7 days / 1 week at 40° C./75% RH

Row | Solid form by XRPD after static storage [2, 5] | SMILES | Solid form by XRPD after static storage [2, 4] | XRPD post-GVS [3] | also measured
1 | converted to Mesylate Form 1 | O=C(NO)c1cnc(N2C[C@@H]3[C@H](C2)[C@H]3NCc2ccc3cc(F)ccc3n2)nc1 [Mesylate Form 6, N-hydroxy 2-{6-[(6-fluoro-quinolin-2-ylmethyl)-amino]-3-aza-bicyclo[3.1.0]hex-3-yl}pyrimidine-5-carboxamide] | converted to Mesylate Form 1 | – | –
2 | converted to Mesylate Form 1 | O=C(NO)c1cnc(N2C[C@@H]3[C@H](C2)[C@H]3NCc2ccc3cc(F)ccc3n2)nc1 [Mesylate Form 7, N-hydroxy 2-{6-[(6-fluoro-quinolin-2-ylmethyl)-amino]-3-aza-bicyclo[3.1.0]hex-3-yl}pyrimidine-5-carboxamide] | converted to Mesylate Form 1 | – | –
3 | converted to Mesylate Form 1 | O=C(NO)c1cnc(N2C[C@@H]3[C@H](C2)[C@H]3NCc2ccc3cc(F)ccc3n2)nc1 [Mesylate Form 8, N-hydroxy 2-{6-[(6-fluoro-quinolin-2-ylmethyl)-amino]-3-aza-bicyclo[3.1.0]hex-3-yl}pyrimidine-5-carboxamide] | converted to Mesylate Form 1 | – | –
4 | Mesylate Form 1 | O=C(NO)c1cnc(N2C[C@@H]3[C@H](C2)[C@H]3NCc2ccc3cc(F)ccc3n2)nc1 [Mesylate Form 9, N-hydroxy 2-{6-[(6-fluoro-quinolin-2-ylmethyl)-amino]-3-aza-bicyclo[3.1.0]hex-3-yl}pyrimidine-5-carboxamide] | Poorly crystalline - Mesylate Form 1 | – | Appearance after static storage ([2]; 1 week at 25° C./97% RH): Sample appeared wet - white solid still present; Appearance after static storage ([2]; 1 week at 40° C./75% RH): color change to yellow; also recorded: Sample appeared ‘damp’ - yellow solid present

Continued, compound first:

Row | SMILES | Solid form by XRPD after static storage [2, 5] | Solid form by XRPD after static storage [2, 4] | XRPD post-GVS [3] | also measured
5 | O=C(NO)c1cnc(N2C[C@@H]3[C@H](C2)[C@H]3NCc2ccc3cc(F)ccc3n2)nc1 [Compound 1, N-hydroxy-2-{6-[(6-fluoro-quinolin-2-ylmethyl)-amino]-3-aza-bicyclo[3.1.0]hex-3-yl}pyrimidine-5-carboxamide] | – | – | – | Solubility in water ([1]; deionized water, 25° C., 24 hours, maximum final concentration 40 mg/ml, listed as Free base): essentially insoluble
6 | O=C(NO)c1cnc(N2C[C@@H]3[C@H](C2)[C@H]3NCc2ccc3cc(F)ccc3n2)nc1 [Free Base Form A, N-hydroxy 2-{6-[(6-fluoro-quinolin-2-ylmethyl)-amino]-3-aza-bicyclo[3.1.0]hex-3-yl}pyrimidine-5-carboxamide] | – | – | – | pH of saturated solution [1]: (pH = 7.4)
7 | O=C(NO)c1cnc(N2C[C@@H]3[C@H](C2)[C@H]3NCc2ccc3cc(F)ccc3n2)nc1 [Free Base Form B, N-hydroxy 2-{6-[(6-fluoro-quinolin-2-ylmethyl)-amino]-3-aza-bicyclo[3.1.0]hex-3-yl}pyrimidine-5-carboxamide] | – | – | – | pH of saturated solution [1]: (pH = 7.4)
8 | O=C(NO)c1cnc(N2C[C@@H]3[C@H](C2)[C@H]3NCc2ccc3cc(F)ccc3n2)nc1 [Mesylate Form 2, N-hydroxy 2-{6-[(6-fluoro-quinolin-2-ylmethyl)-amino]-3-aza-bicyclo[3.1.0]hex-3-yl}pyrimidine-5-carboxamide] | unchanged; also recorded: Mesylate Form 2 | unchanged; also recorded: Mesylate Form 2 | unchanged; also recorded: XRPD Post-GVS: Mesylate Form 2 | HPLC purity after static storage [2, 4]: 99.5%; Solid form by XRPD after static storage ([2]; 7 days / 1 week at 25° C./97% RH, listed as Form 2): stable; HPLC purity after static storage [2, 5]: 99.5%; Solid form by XRPD after static storage ([2]; 7 days / 1 week at 40° C./75% RH, listed as Form 2): stable
9 | O=C(NO)c1cnc(N2C[C@@H]3[C@H](C2)[C@H]3NCc2ccc3cc(F)ccc3n2)nc1 [Mesylate Form 3, N-hydroxy 2-{6-[(6-fluoro-quinolin-2-ylmethyl)-amino]-3-aza-bicyclo[3.1.0]hex-3-yl}pyrimidine-5-carboxamide] | conversion to Mesylate Form 5 | unchanged; also recorded: Mesylate Form 3 | XRPD Post-GVS: Poorly crystalline broad | Solid form by XRPD after static storage ([2]; 7 days / 1 week at 25° C./97% RH, listed as Form 3): remained as Mesylate Form 3; Solid form by XRPD after static storage ([2]; 7 days / 1 week at 40° C./75% RH, listed as Form 3): convert to Mesylate Form 5; Solubility residue pattern in FaSSGF (physchem): new solubility residue patterns; Water content after desorption ([3]; desorption cycle 1 down to 30% RH): 24.30%; Water loss, desorption cycle 1 ([3]; from 30-20% RH): Desorption Cycle 1 22%
10 | O=C(NO)c1cnc(N2C[C@@H]3[C@H](C2)[C@H]3NCc2ccc3cc(F)ccc3n2)nc1 [Mesylate Form 4, N-hydroxy 2-{6-[(6-fluoro-quinolin-2-ylmethyl)-amino]-3-aza-bicyclo[3.1.0]hex-3-yl}pyrimidine-5-carboxamide] | mixture of Mesylate Form 1 and Form 4 | conversion to Mesylate Form 1; also recorded: converted to Mesylate Form 1 | conversion to Mesylate Form 1; also recorded: Post-GVS: Converted to Mesylate Form 1 by XRPD | Hysteresis in GVS ([3]; RH range of hysteresis): displaying hysteresis loop; Water content loss, desorption cycle 1 ([3]; between 20 to 10% RH): ~9%
11 | O=C(NO)c1cnc(N2C[C@@H]3[C@H](C2)[C@H]3NCc2ccc3cc(F)ccc3n2)nc1 [Mesylate Form 5, N-hydroxy 2-{6-[(6-fluoro-quinolin-2-ylmethyl)-amino]-3-aza-bicyclo[3.1.0]hex-3-yl}pyrimidine-5-carboxamide] | remained as Mesylate Form 5; also recorded: Unchanged: Mesylate Form 5 | remained as Mesylate Form 5; also recorded: Unchanged: Mesylate Form 5 | unchanged; also recorded: stable; also recorded: XRPD Post-GVS: Mesylate Form 5 | Solubility residue pattern in FaSSGF (physchem): new solubility residue patterns
12 | O=C(NO)c1cnc(N2C[C@@H]3[C@H](C2)[C@H]3NCc2ccc3cc(F)ccc3n2)nc1 [amorphous mesylate salt, N-hydroxy 2-{6-[(6-fluoro-quinolin-2-ylmethyl)-amino]-3-aza-bicyclo[3.1.0]hex-3-yl}pyrimidine-5-carboxamide] | – | – | – | Solid form by XRPD after static storage ([2]; 7 days / 1 week at 25° C./97% RH, listed as amorphous): largely amorphous; Solid form by XRPD after static storage ([2]; 7 days / 1 week at 40° C./75% RH, listed as amorphous): largely amorphous
